Test results as given in patent US4089961A, “Antipsychotically useful quinolizidylidene derivatives of xanthenes, thioxanthenes and dibenzoxepins” (priority 1976, dated 1978).
Like-named read-outs stand apart in the source and are kept apart here.

Assays:
[1] = tested on: shock avoidance acquisition; assay: blockade of shock avoidance acquisition in the rat (procedure for assessing antipsychotic activity); format: in vivo; conditions: i.p.
Protocol: (§1) To predict the potential ability of a drug to cause EPS, the ratio of its ED50 (i.p.) for antagonism of amphetamine-induced rotation to its ED50 (i.p.) for blockage of shock avoidance acquisition in the rat, a procedure for assessing antipsychotic activity, (R/A ratio) is calculated.

[2] = tested on: striatal dopamine receptors; conditions: rat, in vivo, ip
Source text: There is evidence that antipsychotic drugs cause EPS by interfering with neurotransmission in a nigrostriatal dopaminergic pathway. It is throught that they block dopamine receptors in the neostriatum. Therefore, the ability of a drug to block striatal dopamine receptors is a measure of its EPS liability.
(§2) To assess the potency of drugs in blocking striatal dopamine receptors a procedure was used which was developed by Ungerstedt [Ungerstedt and Arbuthnott, Brain Res. 24 485 (1970); Ungerstedt, Acta physiol. scand., Suppl. 367, 49 (1971)] using rats with unilateral lesions of the substantia nigra induced by injection of 6-hydroxydopamine. This treatment causes degeneration of the nigrostriatal dopaminergic pathway accompanied by a marked decrease in the dopamine content of the neostriatum on the side of the lesion. Animals with this lesion develop postural and motor asymmetries which are altered by drugs which effect dopaminergic activity. Amphetamine, which releases dopamine and norepinephrine from catecholaminergic neurons, causes these rats to rotate unidirectionally toward the side of the lesion. Since there is a much larger amount of dopamine to be released by amphetamine from the intact nigrostriatal neurons on the non-lesioned side than from those remaining on the lesioned side, the rotational behavior is apparently due to a preponderance of activation of striatal dopamine receptors on the intact side. The ability of a drug to antagonize the rotational behavior is therefore a measure of its ability to block striatal dopamine receptors and is indicative of its potential to produce EPS.
as §1

[3] = tested on: striatal dopamine receptors; assay: antagonism of amphetamine-induced rotation in rats with unilateral 6-hydroxydopamine lesions of the substantia nigra; format: in vivo, rat; conditions: for ED50 for antagonism of amphetamine-induced rotation: rat; for ED50: Rattus norvegicus, ip, read-out: Antagonism of Amphetamine-induced Rotation Rats ED50
Source text: as §2, §1

[4] = clinically established antipsychotics; cited from earlier work

| SMILES | ED50 for blockade of shock avoidance acquisition [1] | R/A ratio [2] | ED50 for antagonism of amphetamine-induced rotation ([3]; i.p.) | ED50 [3] | propensity to cause EPS relative to chlorpromazine [4] | ED50 ([3]; rats, i.p., Table I, R) |
| --- | --- | --- | --- | --- | --- | --- |
| Clc1ccc2c(c1)C(=C1CCC3CCCCN3C1)c1ccccc1S2 (stereo not drawn) [3-(2-chlorothioxanthen-9-ylidene)quinolizidine, isomer havin] | 1.7 mg/kg | 4.8 | 8.2 mg/kg |  |  |  |
| Clc1ccc2c(c1)C(=C1CCC3CCCCN3C1)c1ccccc1S2 (stereo not drawn) [3-(2-chlorothioxanthen-9-ylidene)quinolizidine, other isomer] | 0.7 mg/kg | 3.3 | 2.3 mg/kg |  |  |  |
| CN(C)CCCN1c2ccccc2Sc2ccc(Cl)cc21 [Chlorpromazine] |  |  |  | 2 mg/kg |  |  |
| CN1CCN(C2=Nc3cc(Cl)ccc3Nc3ccccc32)CC1 [Clozapine, clozapine] |  |  |  |  | known to produce EPS to a lesser extent than chlorpromazine | 25.4 mg/kg |
| O=C(CCCN1CCC(O)(c2ccc(Cl)cc2)CC1)c1ccc(F)cc1 [Haloperidol, haloperidol] |  | 0.3-0.5 |  |  | considerably greater propensity to cause EPS than chlorpromazine | 0.05 mg/kg |
| O=c1[nH]c2ccccc2n1C1CCN(CCCC(c2ccc(F)cc2)c2ccc(F)cc2)CC1 [Pimozide, pimozide] |  |  |  | 0.08 mg/kg | considerably greater propensity to cause EPS than chlorpromazine |  |
| CSc1ccc2c(c1)N(CCC1CCCCN1C)c1ccccc1S2 (centres unmarked) [Thioridazine, thioridazine] |  | 2.7 |  |  | known to produce EPS to a lesser extent than chlorpromazine | 13.7 mg/kg |
| CN1CCN(CCCN2c3ccccc3Sc3ccc(C(F)(F)F)cc32)CC1 [Trifluoperazine, trifluoperazine] |  | 0.3-0.5 |  |  | considerably greater propensity to cause EPS than chlorpromazine | 0.12 mg/kg |
